Test results reported in patent publication US9976142B2, “Targeting molecule and a use thereof” (Nitto Denko Corporation, priority 2014, dated 2018).
Square brackets hold non-standard residues; d marks the D form. Ends that are not written are not given here.

System: rat hepatic stellate cells (HSCs)
Assay: siRNA introduction into rat hepatic stellate cells with targeting molecule/LipoTrust/siRNA lipoplex; HSP47 expression by quantitative PCR
Type: cell-based
Details: siRNA 11.5 μg/ml; for HSP47 expression rate (%): FIG. 2, HSP47 relative to GAPDH, untreated cell = 100; for extent of the suppression of the expression of HSP47 gene, compared with RBP Loop 1: FIG. 3; for extent of the suppression of the expression of HSP47 gene, compared with RBP Loop 1 / expression rate of HSP47 gene: peptide 7.7 μM; for expression rate of HSP47 gene: FIG. 5; for suppression of HSP47 expression: peptide stock solutions 1.1-10 mM
Description: LipoTrust™ SR was dissolved in nuclease-free water (Ambion, Cat. No. AM9937) at a concentration of 1 mM of the cationic lipid. 10 μl of this liposome solution was placed in an Eppendorf tube, to which added 1 μl of the stock solution of each peptide above dissolved in DMSO at predetermined concentration (1.1 mM, 1.25 mM, 2.5 mM, 3.4 mM, 5 mM or 10 mM for experiments whose results are shown in FIG. 1; 90 mM for experiments whose results are shown in FIG. 2) or the stock solution of vitamin A above, and the mixture was vortexed for 15 seconds. To this mixture, 1.5 μl of the above siRNA stock solution was added and mixed, then 17.5 μl of 5% glucose aq. solution (OTSUKA GLUCOSE INJECTION 5%, Otsuka Pharmaceutical Co., Ltd.) was added and mixed. Thus obtained solution of liposome-peptide (or vitamin A)-siRNA complex (lipoplex) was left still under shade for 15 min at room temperature. Also, a mixture of the peptide and siRNA without LipoTrust™ SR was prepared as a control.
Two days before the siRNA introduction, hepatic stellate cells (HSCs) prepared from a rat liver according to the method of Schaefer et al. (Schaefer et al., Hepatology. 1987 July-August; 7(4):680-7) were inoculated uniformly onto a 6-well plate at a density of 0.2×10^5/well and cultured in a Dulbecco's modified Eagle's medium (D-MEM, Sigma Aldrich, Cat. No. D6546, hereinbelow referred to as “culture medium”) containing 10% fetal bovine serum (Thermo HyClone, Cat. No. SH30070.03), 2% L-glutamine (Sigma Aldrich, Cat. No. G7513) and 1% penicillin-streptomycin (Sigma Aldrich, Cat. No. G1146).
The culture medium was removed, 900 μl of fresh culture medium was added to each well, and then this was incubated for at least 30 minutes at 37° C. To 30 μl of each lipoplex solution obtained in Example 1, 100 μl of 5% glucose solution was added to make a mixed solution of 130 μl, and 100 μl of said mixture was added to corresponding well. The final concentration of the siRNA at this time was 11.5 μg/ml. After incubating at 37° C., in 5% CO2 for 30 minutes, the medium comprising the lipoplex solution was removed and substituted with the culture medium, and this was cultured under normal condition for 24-36 hours.
Total RNA extraction of each sample was carried out using RNeasy Mini kit (Qiagen). Firstly, the culture medium was removed, and 350 μl/well each of RLT/2ME solution which was prepared in advance by mixing RLT solution attached to RNeasy Mini kit with 1% (v/v) 2-mercaptoethanol (2ME, Wako) was dispensed into each well. Total volume of the cell lysate was homogenized with QIAshredder (Qiagen), centrifuged at 4° C. and 12000 rpm for 2 min, and then total RNA was extracted according to the manufacturer's instruction. The obtained RNA was quantified using NanoDrop 2000 (Thermo Fisher Scientific), and cDNA was synthesized by RT-PCR. 20 μl total volume/tube of the reaction solution consisting of 4 μl of the reverse transcriptase mix (Super Script VILO Master Mix, Invitrogen, 11755-250) and 16 μl of total RNA of each sample (containing 100-500 ng or more RNA) was reacted at 25° C. for 5 min, at 42° C. for 60 min, then at 85° C. for 5 min, respectively, and subsequently stored at 4° C.
The suppression of HSP47 expression was analyzed by quantitative PCR. As a standard template, the untreated cell sample was used in 10-fold dilution series (the stock solution, 10- and 100-fold dilutions). To each well of MicroAmp (Optical 96-well Reaction Plate, Applied Biosystems, Cat. No. 4306737) added a 48 μl premix consisting of 22 μl of sterile water, 25 μl of Power SYBR® Green (Applied Biosystems, Cat. No. 4367669) and 1 μl of primer mix. The primer mix comprises 50 μM each of the primer set against HSP47 or GAPDH, an internal standard gene, as shown below:
To the corresponding well, 2 μl of the template cDNA obtained from each sample was added to make a total volume of 50 μl. […]

[1] = each peptide at final concentration 69.2 μM, smaller value = greater suppression

KDPEGLFLQD (Peptide No. 10)
HSP47 expression rate (%) [1]: 57.2%

AKEDPKGLFLQDNI (Variant peptide E3K6) [Mutant peptide 1]
extent of the suppression of the expression of HSP47 gene, compared with RBP Loop 1: lower

AKKDPEGLFLQD (Peptide No. 10-2)
HSP47 expression rate (%) [1]: 48.5%

CC1=C(/C=C/C(C)=C/C=C/C(C)=C/CO)C(C)(C)CCC1 [VA, all-trans-retinol, reference compound]
HSP47 expression rate (%) (VA at final concentration 7.7 μM): 46.8%

AKKDPEGLFLQDN (Peptide No. 10-1)
HSP47 expression rate (%) [1]: 39.3%

KDPEGLFLQDN (Peptide No. 10-6)
HSP47 expression rate (%) [1]: 44.3%

KKDPEGLFLQD (Peptide No. 10-5)
HSP47 expression rate (%) [1]: 40.4%

KKDPEGLFLQDNI (Peptide No. 10-3)
HSP47 expression rate (%) [1]: 31.2%

AKFQKLEPGDDLNI (Scramble peptide) [scrambled peptide, negative control, reference compound]
expression rate of HSP47 gene: almost the same as the result in the group using no targeting molecule

KDPEGLFLQDNI (Peptide No. 10-4)
HSP47 expression rate (%) [1]: 42.9%

AKGRVRLLNNWDVCA (Synthetic RBP loop 2)
suppression of HSP47 expression (FIG. 1): concentration-dependent suppression of HSP47 expression

AKKDPEGLFLQDNI (Synthetic RBP loop 1)
suppression of HSP47 expression (FIG. 1): concentration-dependent suppression of HSP47 expression | suppression rate by the complex, compared with vitamin A (FIG. 1): comparable to that by vitamin A | HSP47 expression rate (%) [1]: 49.0% | expression rate of HSP47 gene: significantly decreased

d-INDQLFLGEPDKKA-amide ([dI][dN][dD][dQ][dL][dF][dL]G[dE][dP][dD][dK][dK][dA]-NH2; N-terminus assumed; SMILES CC[C@@H](C)[C@@H](N)C(=O)N[C@H](CC(N)=O)C(=O)N[C@H](CC(=O)O)C(=O)N[C@H](CCC(N)=O)C(=O)N[C@H](CC(C)C)C(=O)N[C@H](Cc1ccccc1)C(=O)N[C@H](CC(C)C)C(=O)NCC(=O)N[C@H](CCC(=O)O)C(=O)N1CCC[C@@H]1C(=O)N[C@H](CC(=O)O)C(=O)N[C@H](CCCCN)C(=O)N[C@H](CCCCN)C(=O)N[C@H](C)C(N)=O) [retro-inverso peptide]
targetability (suppression of HSP47) (FIG. 4, peptide 23.1 μM): almost the same targetability as that of RBP Loop 1

AKDKPEGLFLQDNI (Variant peptide D3K4) [Mutant peptide 2]
extent of the suppression of the expression of HSP47 gene, compared with RBP Loop 1: lower

AKDDPEGLFLQKNI (Variant peptide D3K12) [Mutant peptide 3]
extent of the suppression of the expression of HSP47 gene, compared with RBP Loop 1: lower
